Laboratory results taken from ChEMBL document CHEMBL1201862, “PubChem BioAssay data set” (2004).
Calls of active or inactive are those of the source.

Columns and labels:
HeLa = experiment: HeLa cell cytotoxicity, dose response, cytotoxicity control, ATP luminescence, cherry-pick samples (AID 687004); assay type: functional, cell-based; settings: Homo sapiens
[1] = biological target: Scavenger receptor class B member 1 (Mus musculus, UniProt Q61009); experiment: inhibitors of SR-BI-mediated HDL uptake, dose response, cell-based, ldlA[mSR-BI] CHO, DiI fluorescence, dry powder, set 10 (AID 624029); assay type: functional
[2] = HeLa cell cytotoxicity, dose response, cytotoxicity control for MgcRacGAP inhibitor project (AID 624300); assay type: functional
[3] = biological target: T1, Rac GTPase-activating protein 1 (Homo sapiens, UniProt Q9H0H5); experiment: MgcRacGAP GTPase-activating activity inhibitors, confirmation, biochemical, ADP Hunter fluorescence, primary and confirmatory (AID 624330); assay type: functional
T1 sequence (Q9H0H5 whole entry): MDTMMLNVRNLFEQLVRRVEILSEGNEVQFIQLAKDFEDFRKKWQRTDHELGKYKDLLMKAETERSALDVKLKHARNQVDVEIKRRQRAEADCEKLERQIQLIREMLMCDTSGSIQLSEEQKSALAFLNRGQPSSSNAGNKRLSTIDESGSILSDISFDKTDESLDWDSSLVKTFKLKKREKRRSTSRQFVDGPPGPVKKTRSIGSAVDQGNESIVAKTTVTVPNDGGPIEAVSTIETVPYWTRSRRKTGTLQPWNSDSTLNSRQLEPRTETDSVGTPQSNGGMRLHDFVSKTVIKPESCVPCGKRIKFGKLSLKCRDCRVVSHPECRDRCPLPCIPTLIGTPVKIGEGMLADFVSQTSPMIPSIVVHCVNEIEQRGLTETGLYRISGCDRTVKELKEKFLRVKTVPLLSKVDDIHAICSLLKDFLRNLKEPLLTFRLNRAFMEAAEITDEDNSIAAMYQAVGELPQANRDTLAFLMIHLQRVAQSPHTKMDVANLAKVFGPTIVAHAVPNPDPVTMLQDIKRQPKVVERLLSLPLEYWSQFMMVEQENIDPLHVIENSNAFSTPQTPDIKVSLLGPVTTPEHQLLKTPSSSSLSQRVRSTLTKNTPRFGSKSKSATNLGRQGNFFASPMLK

[4] = biological target: T2, Sentrin-specific protease 1 (Homo sapiens, UniProt Q9P0U3); experiment: Dose response confirmation of small molecule inhibitors of the catalytic domain of the SUMO protease, SENP1 in a FRET assay.; assay type: functional; settings: read-out: IC50_Mean
[5] = biological target: T2, Sentrin-specific protease 1; experiment: potency of human SENP1 inhibitors, dose response, biochemical, kinetic FRET (AID 651697); assay type: functional; settings: read-out: IC50_Mean
[6] = biological target: Benomyl/methotrexate resistance protein (Candida albicans, UniProt P28873); experiment: CaMdr1 efflux pump inhibitor potency, dose response, singleplex, Cherry Pick1 hits (AID 588608); assay type: functional
[7] = A Cell-Based Confirmatory Screen for Compounds that Inhibit VEEV, TC-83 (8).; assay type: functional
[8] = biological target: T3, Low molecular weight phosphotyrosine protein phosphatase (Homo sapiens, UniProt P24666); assay type: functional; settings: read-out: IC50_Mean
T3 sequence (P24666 whole entry): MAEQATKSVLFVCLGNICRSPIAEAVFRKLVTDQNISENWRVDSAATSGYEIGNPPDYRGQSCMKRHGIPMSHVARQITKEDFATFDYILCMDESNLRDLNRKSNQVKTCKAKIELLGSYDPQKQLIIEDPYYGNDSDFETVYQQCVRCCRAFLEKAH

[9] = biological target: T4, Carboxy-terminal domain RNA polymerase II polypeptide A small phosphatase 1 (Homo sapiens, UniProt Q9GZU7); experiment: inhibitors of CTDSP1, concentration-response testing, biochemical assay, absorbance-based, actives from ultra-high-throughput screening (AID 540297); assay type: functional
T4 sequence (Q9GZU7 whole entry): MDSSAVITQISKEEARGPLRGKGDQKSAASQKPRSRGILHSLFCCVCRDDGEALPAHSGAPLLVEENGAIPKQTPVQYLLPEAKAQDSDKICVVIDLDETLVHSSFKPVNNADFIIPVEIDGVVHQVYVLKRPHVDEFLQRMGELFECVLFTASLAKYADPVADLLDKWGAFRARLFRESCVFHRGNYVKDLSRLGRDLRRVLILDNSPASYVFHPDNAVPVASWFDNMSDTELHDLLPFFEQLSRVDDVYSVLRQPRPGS

[10] = biological target: T3, Low molecular weight phosphotyrosine protein phosphatase; assay type: functional; settings: read-out: IC50_Mean; remark: listed apart in the source
[11] = biological target: Metabotropic glutamate receptor 3 (Rattus norvegicus, UniProt P31422); experiment: mGlu3 NAM potency via calcium readout, dose response, mGlu3 NAM project, TREx293 cells, Galpha15, calcium flux (AID 651840); assay type: functional
Sequence of Metabotropic glutamate receptor 3 (P31422 whole entry): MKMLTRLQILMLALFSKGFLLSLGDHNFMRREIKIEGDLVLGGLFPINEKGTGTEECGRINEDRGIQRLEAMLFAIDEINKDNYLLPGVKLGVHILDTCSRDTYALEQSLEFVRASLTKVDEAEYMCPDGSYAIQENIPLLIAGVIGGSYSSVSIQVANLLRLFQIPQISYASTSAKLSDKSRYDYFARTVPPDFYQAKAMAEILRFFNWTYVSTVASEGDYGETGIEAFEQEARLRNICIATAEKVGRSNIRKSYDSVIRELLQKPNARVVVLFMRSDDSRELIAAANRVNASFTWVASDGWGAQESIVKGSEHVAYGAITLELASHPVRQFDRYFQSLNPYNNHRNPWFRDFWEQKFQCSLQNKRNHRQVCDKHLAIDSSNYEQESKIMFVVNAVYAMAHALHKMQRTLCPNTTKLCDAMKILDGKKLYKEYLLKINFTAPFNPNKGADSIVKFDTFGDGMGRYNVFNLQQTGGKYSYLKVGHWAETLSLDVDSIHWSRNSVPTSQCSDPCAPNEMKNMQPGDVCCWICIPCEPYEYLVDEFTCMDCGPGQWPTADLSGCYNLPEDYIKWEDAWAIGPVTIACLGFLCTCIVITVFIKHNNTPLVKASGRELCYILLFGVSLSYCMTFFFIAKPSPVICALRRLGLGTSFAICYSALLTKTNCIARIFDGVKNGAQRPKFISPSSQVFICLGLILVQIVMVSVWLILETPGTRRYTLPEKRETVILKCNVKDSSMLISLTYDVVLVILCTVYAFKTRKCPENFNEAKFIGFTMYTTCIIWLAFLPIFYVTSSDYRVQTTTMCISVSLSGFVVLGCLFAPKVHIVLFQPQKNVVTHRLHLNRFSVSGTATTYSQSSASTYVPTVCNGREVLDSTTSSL

T2 sequence (Q9P0U3 whole entry, the tested form may be a part): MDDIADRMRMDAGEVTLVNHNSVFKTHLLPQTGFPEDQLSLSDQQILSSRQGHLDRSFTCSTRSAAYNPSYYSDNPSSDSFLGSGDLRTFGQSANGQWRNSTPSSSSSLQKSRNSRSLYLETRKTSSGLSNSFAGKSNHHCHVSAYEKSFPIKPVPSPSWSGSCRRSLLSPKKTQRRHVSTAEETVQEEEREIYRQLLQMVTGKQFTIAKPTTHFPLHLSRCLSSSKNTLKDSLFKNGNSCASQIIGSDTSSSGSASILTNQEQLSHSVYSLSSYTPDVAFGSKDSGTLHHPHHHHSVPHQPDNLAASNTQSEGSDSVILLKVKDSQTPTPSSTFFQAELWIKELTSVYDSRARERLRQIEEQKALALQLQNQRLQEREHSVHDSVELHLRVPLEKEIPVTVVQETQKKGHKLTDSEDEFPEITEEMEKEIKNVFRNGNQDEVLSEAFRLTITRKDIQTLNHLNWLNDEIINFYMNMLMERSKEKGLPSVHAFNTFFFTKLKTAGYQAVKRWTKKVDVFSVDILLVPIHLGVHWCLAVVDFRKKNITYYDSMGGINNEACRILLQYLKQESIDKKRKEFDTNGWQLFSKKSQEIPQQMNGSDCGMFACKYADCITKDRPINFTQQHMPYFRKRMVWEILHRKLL
Sequence of Scavenger receptor class B member 1 (Q61009 whole entry): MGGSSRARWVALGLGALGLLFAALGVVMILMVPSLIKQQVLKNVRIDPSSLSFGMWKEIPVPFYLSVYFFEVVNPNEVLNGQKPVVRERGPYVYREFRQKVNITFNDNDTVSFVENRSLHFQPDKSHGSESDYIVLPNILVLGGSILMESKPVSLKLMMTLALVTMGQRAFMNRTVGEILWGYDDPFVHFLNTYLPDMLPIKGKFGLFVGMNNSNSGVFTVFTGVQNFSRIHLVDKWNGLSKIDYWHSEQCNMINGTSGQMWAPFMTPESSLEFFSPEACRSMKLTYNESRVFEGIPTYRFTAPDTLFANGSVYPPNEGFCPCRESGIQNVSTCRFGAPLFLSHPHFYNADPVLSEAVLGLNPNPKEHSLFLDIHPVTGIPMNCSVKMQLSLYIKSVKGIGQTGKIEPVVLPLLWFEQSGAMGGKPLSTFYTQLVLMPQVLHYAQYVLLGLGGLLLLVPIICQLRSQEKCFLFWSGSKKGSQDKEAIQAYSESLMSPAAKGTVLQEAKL
Sequence of Benomyl/methotrexate resistance protein (P28873 whole entry): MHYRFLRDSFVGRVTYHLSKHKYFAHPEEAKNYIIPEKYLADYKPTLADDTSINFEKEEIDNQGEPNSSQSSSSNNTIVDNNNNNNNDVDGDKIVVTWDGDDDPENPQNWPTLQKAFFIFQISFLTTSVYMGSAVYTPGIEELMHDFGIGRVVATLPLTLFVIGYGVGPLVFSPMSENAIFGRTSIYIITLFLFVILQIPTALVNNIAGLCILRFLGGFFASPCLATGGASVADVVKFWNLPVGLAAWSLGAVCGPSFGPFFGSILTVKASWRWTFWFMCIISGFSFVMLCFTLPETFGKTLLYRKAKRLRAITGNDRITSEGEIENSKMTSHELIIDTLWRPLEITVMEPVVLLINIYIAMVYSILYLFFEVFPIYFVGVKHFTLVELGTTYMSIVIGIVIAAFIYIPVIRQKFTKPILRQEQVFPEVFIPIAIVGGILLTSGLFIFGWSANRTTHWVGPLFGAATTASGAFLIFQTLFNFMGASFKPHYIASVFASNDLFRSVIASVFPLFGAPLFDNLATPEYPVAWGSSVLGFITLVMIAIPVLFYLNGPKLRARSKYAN

SMILES: C[C@@H]1CN([C@@H](C)CO)C(=O)c2cc(NC(=O)Nc3cccc4ccccc34)ccc2O[C@@H]1CN(C)C(=O)Nc1ccccc1
- AC50 (HeLa): 0.252 µM (active)

SMILES: CC(C)NC(=O)Nc1ccc2c(c1)C(=O)N([C@@H](C)CO)C[C@H](C)[C@H](CN(C)S(=O)(=O)c1ccc(Cl)cc1)O2
- AC50 [1]: > 70 µM (inactive)

SMILES: CN(c1ccc(O)cc1)c1nc(-c2ccccc2)cs1
- CC50 [2]: 100 µM (active)
- IC50 [3]: 57.7 µM (active)

SMILES: COc1ccc2sc(/C=C/c3ccccc3O)[n+](C)c2c1
- IC50 [4]: 10.2 µM (active)
- IC50 [5]: 14.3 µM (active)

SMILES: Cc1ccc(C)c(C(=O)COC(=O)c2ccc(C)c(S(=O)(=O)N3CCOCC3)c2)c1
- EC50 [6]: 0.704 µM (active)

SMILES: CN1CCN(C)/C(=N/c2cc(Cl)c(C#N)cc2C(=O)Nc2ccccc2)C1
- IC50 [7]: < 0.26 µM (active)

SMILES: N=c1c2ccccc2nnn1-c1ccc(C(F)(F)F)cc1
- IC50 [8]: 12.8 µM (active)
- IC50 [9]: 8.01 µM (active)
- IC50 [10]: 18.8 µM (active)

SMILES: COc1ccc(C#Cc2ccc(C(=O)N3CCCC4(C3)OCCO4)cc2)cc1
- IC50 [11]: 7.17 µM
